Results: US20050033056A1, “Hydroxylated indole derivatives and uses thereof” (priority 2001, published 2005)

Assays:
[1] = test system: CYP1A1/2; test: CYP induction in primary human hepatocytes, Western immunoblotting: CYP1A1/2; format: cell-based; settings: TCDD 0.4 μM, 72 hours
Experimental: Upon receiving a primary culture of human hepatocytes in 6-well plates, the culture medium containing streptomycin/penicillin was refreshed (2 ml/well). […] Compound 1 stock solution was added to the culture medium at a 1:400 ratio (v/v). The culture medium and testing compounds were replenished every 24 hours.
At the end of the treatment, the cells were harvested into 1 mL of phosphate-buffered saline (PBS) after washing twice. The cells were precipitated by centrifugation, and were resuspended in PBS (approximately 50 μL). The sample preparation, after mixing with […] of Laemmli buffer (62.5 mM Tris-HCl containing 2% SDS, 25% glycerol, and 0.01% bromophenol, pH 6.8) and being rocked for 2-4 hours, was mixed with 10 μL of 2-mercaptoethanol, and heated at 90° C. for 10 minutes before electrophoresis.
Proteins were resolved in a 12% SDS-PAGE gel using a mini gel apparatus at a constant voltage ([…]) for 70-80 minutes, and transferred onto a polyvinylidene difluoride (PVDF) membrane using a membrane-transferring unit at a constant voltage ([…]) for 60 minutes. The membrane was blocked by 5% non-fat dried milk (NFDM) blotting buffer (PBS containing 0.05% Tween 20) at 4° C. overnight. […] CYP proteins were detected by […] using an X-ray developer.

[2] = test system: pooled human liver microsomal preparations (HLM); test: Compound 1 metabolism / metabolite formation in reconstituted system with pooled HLM; format: in vitro ADME; settings: estimated by UV absorbance at 270 nm, metabolite formed or Compound 1 left after 1 hour with NADPH
Experimental: (§1) The metabolism of Compound 1 was determined by the disappearance of Compound 1 or the appearance of Compound 1 metabolites in reaction mixtures as compared to respective controls. Compound 1 was incubated in the reconstituted in vitro reaction systems containing pooled human liver S9 fractions, microsomal preparations, or recombinant hepatic CYP forms, including CYP1A2, CYP2C9, CYP2C19, CYP2D6, CYP2E1, and CYP3A4. The reaction mixture (total volume of 250 μL) contained 0.5 mg of liver microsomal protein, 50 or 25 pmol of recombinant CYP, and Compound 1 (50-80 μM) in 50 mM Tris buffer containing 15 mM MgCl2 (pH 7.4). After incubating at 37° C. with gentle shaking for 1 minute, the reaction was initiated by adding 25 μL of NADPH solution (20 mg/mL), and was carried out for 1 hour. The reaction was terminated by quickly cooling the test tube on ice, followed by the addition of an equal volume of 100% methanol. The samples were centrifuged in a desktop centrifuge at 14,000 rpm for 5 minutes, and the supernatants were filtered through syringe filters (13 mm, 0.45 μm). The filtrates were subjected to analysis using LC/MS (ion trap) or LC/MS/MS.
1. […] The detector was monitored at 270 nm, which is the UVmax of Compound 1 predetermined by scanning between 225-400 nm using a photodiode array detector (PDA). […]

[3] = target: CYP2D6 (Homo sapiens, UniProt P10635); test: Compound 1 metabolism / metabolite formation by recombinant CYP2D6; format: in vitro ADME; set-up: purchased Gentest Corp. (Woburn, Mass.); host or cells: insect cells (microsomal preparation); settings: recombinant CYP2D6, NADPH
Sequence of CYP2D6 (P10635 whole entry): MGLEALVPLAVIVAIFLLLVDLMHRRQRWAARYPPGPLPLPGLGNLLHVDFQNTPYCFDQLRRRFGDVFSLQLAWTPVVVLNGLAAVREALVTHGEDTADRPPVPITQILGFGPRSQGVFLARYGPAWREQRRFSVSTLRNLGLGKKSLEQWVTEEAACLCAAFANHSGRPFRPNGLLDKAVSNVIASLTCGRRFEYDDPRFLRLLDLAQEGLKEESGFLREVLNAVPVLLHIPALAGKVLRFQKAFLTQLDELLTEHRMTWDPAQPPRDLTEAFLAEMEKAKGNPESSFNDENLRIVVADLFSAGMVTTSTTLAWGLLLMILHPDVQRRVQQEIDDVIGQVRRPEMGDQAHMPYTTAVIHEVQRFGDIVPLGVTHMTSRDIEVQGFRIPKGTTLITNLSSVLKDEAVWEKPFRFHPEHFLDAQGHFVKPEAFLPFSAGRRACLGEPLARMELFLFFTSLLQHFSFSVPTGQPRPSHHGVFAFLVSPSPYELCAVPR
Experimental: as §1
(§2) 1. LC/MS (LCQ ion trap mass spectrometer, Finnigan Corp., San Jose, Calif.): Hewlett Packard 1100 HPLC system (Waldbronn, Germany) consisted of a binary pump, an autosampler, a column compartment unit, and an online variable wavelength UV detector (VWD). The detector was monitored at 270 nm, which is the UVmax of Compound 1 predetermined by scanning between 225-400 nm using a photodiode array detector (PDA). The metabolites were separated on a Hewlett Packard Eclipse C18 column (150×2.1 mm). The mobile phases were 10 nmM ammonium acetate at pH 4.8 (A) and acetonitrile (B). The gradient (B) was 10% (0-6 minutes), 22% (12-22 minutes), 90% (25-30 minutes), and 10% (31 minutes and after). The flow rate was 0.25 mL/minute. Software Navigator (Version 1.2, Finnigan Corp.) was used to control the HPLC and MS and to acquire the data. […]

[4] = target: CYP3A4 (Homo sapiens, UniProt P08684); test: Compound 1 metabolism / metabolite formation by recombinant CYP3A4; format: in vitro ADME; set-up: purchased Gentest Corp. (Woburn, Mass.); host or cells: insect cells (microsomal preparation); settings: recombinant CYP3A4; estimated by UV absorbance at 270 nm; metabolite formed or Compound 1 left after 1 hour with NADPH
Sequence of CYP3A4 (P08684 whole entry): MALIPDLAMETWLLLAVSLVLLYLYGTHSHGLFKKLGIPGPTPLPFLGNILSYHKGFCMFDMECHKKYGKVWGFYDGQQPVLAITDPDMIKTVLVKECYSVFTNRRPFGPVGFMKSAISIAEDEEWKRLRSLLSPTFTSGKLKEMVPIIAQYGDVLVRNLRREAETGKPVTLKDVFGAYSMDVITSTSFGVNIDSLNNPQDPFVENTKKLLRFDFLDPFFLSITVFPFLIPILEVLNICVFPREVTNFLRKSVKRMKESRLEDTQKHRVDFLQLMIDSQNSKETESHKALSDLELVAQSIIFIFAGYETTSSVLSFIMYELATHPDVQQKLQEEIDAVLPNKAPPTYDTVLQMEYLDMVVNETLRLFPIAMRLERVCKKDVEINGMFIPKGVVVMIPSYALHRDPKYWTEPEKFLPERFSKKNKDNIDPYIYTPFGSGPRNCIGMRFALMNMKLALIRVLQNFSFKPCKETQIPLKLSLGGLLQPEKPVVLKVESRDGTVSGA
Experimental: as §1, §2

[5] = target: CYP2C19 (Homo sapiens, UniProt P33261); test: Compound 1 metabolism / metabolite formation by recombinant CYP2C19; format: in vitro ADME; set-up: purchased Gentest Corp. (Woburn, Mass.); host or cells: insect cells (microsomal preparation)
Sequence of CYP2C19 (P33261 whole entry): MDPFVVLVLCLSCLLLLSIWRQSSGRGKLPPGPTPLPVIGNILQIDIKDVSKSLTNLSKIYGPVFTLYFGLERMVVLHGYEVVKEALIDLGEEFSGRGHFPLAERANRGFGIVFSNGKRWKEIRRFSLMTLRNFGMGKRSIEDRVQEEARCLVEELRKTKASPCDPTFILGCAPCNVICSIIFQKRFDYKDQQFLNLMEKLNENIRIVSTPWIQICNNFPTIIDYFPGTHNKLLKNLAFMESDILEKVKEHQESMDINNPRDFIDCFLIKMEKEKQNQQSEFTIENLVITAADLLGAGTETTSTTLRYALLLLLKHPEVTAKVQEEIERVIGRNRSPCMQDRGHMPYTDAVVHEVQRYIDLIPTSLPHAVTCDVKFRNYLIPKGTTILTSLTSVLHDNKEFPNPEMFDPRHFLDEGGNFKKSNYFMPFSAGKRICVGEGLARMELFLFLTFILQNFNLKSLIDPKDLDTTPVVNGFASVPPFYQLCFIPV
Experimental: as §1
1. LC/MS (LCQ ion trap mass spectrometer, Finnigan Corp., San Jose, Calif.): Hewlett Packard 1100 HPLC system (Waldbronn, Germany) consisted of a binary pump, an autosampler, a column compartment unit, and an online variable wavelength UV detector (VWD). The detector was monitored at 270 nm, which is the UVmax of Compound 1 predetermined by scanning between 225-400 nm using a photodiode array detector (PDA). The metabolites were separated on a Hewlett Packard Eclipse C18 column (150×2.1 mm). The mobile phases were 10 nmM ammonium acetate at pH 4.8 (A) and acetonitrile (B). The gradient (B) was 10% (0-6 minutes), 22% (12-22 minutes), 90% (25-30 minutes), and 10% (31 minutes and after). The flow rate was 0.25 mL/minute. Software Navigator (Version 1.2, Finnigan Corp.) was used to control the HPLC and MS and to acquire the data. The MS was operated at positive electrospray ionization (ESI) with 5.2 kV ionization potential and 220° C. heated capillary temperature. The product ion spectra were generated under 24V collision energy, which was optimized for the fragmentation of Compound 1.
2. LC/MS/MS (SCIEX API2000 triple quadrupole mass spectrometer, PE Biosystem, Foster City, Calif.): The same HPLC system described above was coupled with a tandem mass spectrometer. The metabolites were separated on a Sulpelco Discovery C18 column (150×2.1 mm), and the mobile phase described previously was run at 1.0 mL/min with a 1:10 split. The gradient (B) was 20% (0-6 minutes), 60% (14-18 minutes), 95% (20-24 minutes), and 20% (25 minutes and after). The operation of the HPLC and the MS/MS was controlled by MacChrom (Version 1.6, PE Biosystem). […]

SMILES | expression of CYP1A1/2 (Western immunoblotting), positive control [1] | Rel. Amount (%) [2] [%] | formation of the metabolite from Compound 1 by CYP2D6 (in words) [3] | Rel. Amount (%) [4] [%] | formation of the metabolite from Compound 1 by CYP2C19 (in words) ([5]; recombinant CYP2C19, NADPH) | Rel. Amount (%) ([5]; recombinant CYP2C19, estimated by UV absorbance at 270 nm, metabolite formed or Compound 1 left after 1 hour with NADPH)
Clc1cc2c(cc1Cl)Oc1cc(Cl)c(Cl)cc1O2 [TCDD, 2,3,7,8-tetrachlorodibenzo-p-dioxin, reference compound] | elevated expressions |  |  |  |  | 
CNC(=O)Cc1ccc2ccn(C3CCNCC3)c2c1 [Compound M4] |  | 21 | formed | 31 | formed | 20
